Tests used:
Type in all cases: in vivo
C. elegans [1] = conditions: 100 mM H2O2 plus supplement (10 mM GA, 100 μM glycine or 500 μM L-serine)
Procedure: Mitochondrial staining was performed as described previously^3,4. Briefly, L1 worms were grown on plate or in liquid culture for 2-3 days at 15° C. […] Next, the excess dye was washed off with M9 buffer and worms were incubated in 100 μl M9 for 30 min to eliminate the excess dye in the gut. Finally, worms were paralyzed with 0.5 mM Levamizol (Sigma-Aldrich), placed on slides covered with a thin layer of 2% agarose on top of which the coverslip (22×22 mm, Menzel-Glaser no. 1) was fixed using nail polish. We used a Zeiss LSM 700 inverted laser scanning confocal microscope and a Zeiss LCI Plan-Neofluar 63×/1.3 ImmCorr DIC M27 objective to image mitochondria (Zeiss, Germany). MitoTracker Red CMXRos was excited at 555 nm and the emission above 560 nm was acquired by the second PMT. Optical sections at 0.1×0.1×0.5 μm^3 x-y-z resolution were collected in […]. Final images were adjusted for intensity and merged in Fiji. No non-linear adjustments were made.

C. elegans [2] = experiment: Growth rate / worm size; conditions: 100 mM H2O2 plus supplement (10 mM GA, 100 μM glycine or 500 μM L-serine)
Procedure: Synchronized L1 worms were incubated at 15° C. on plates or in liquid culture and exposed to different conditions as indicated. Single worms were selected randomly from the plates or aliquots were taken from the liquid cultures and added to NGM plates for immediate visualization. 25 worms per treatment were measured at 24-48 hr intervals and all growth curves were done four times.

C. elegans [3] = experiment: Quantification of glutathione (GSH/GSSG-Glo)
Procedure: Sample preparation was performed as described previously with some modifications^6. From each condition 10,000 synchronized animals were harvested and washed 3 times with sterile water. […] To thoroughly lyse the worms, 5 cycles of freezing and thawing were performed in a water bath at 37° C., followed by a 1-min sonication. The samples were then centrifuged and the supernatant tested for protein estimation and GSH quantification. Total GSH, GSSG, and GSH/GSSG ratios were quantified using the GSH/GSSG-Glo assay kit (Promega) following the instructions of the manufacturer. Briefly, each sample was tested in triplicate in 96-well culture plates with total glutathione or GSSG lysis reagent, for total glutathione or GSSG measurement, respectively. The GSH probe, luciferin-NT, was converted to luciferin, which is coupled to a firefly luciferase. The plates were then read in an […] plate reader (Perkin Elmer, United States). The GSSG value was subtracted from the total glutathione to calculate GSH levels and GSH/GSSG ratio. Four biological replicates were analyzed for each condition.

C. elegans [4] = experiment: H2O2 accumulation in worms (Amplex Red); conditions: co-supplemented with peroxide and GA vs peroxide alone, 3 days
Procedure: Hydrogen peroxide was measured using the Amplex Red hydrogen peroxide/peroxidase assay kit (Molecular Probes, Eugene, OR), adapting the protocol to C. elegans. In the presence of hydrogen peroxide, Amplex Red is oxidized by horseradish peroxidase to form a red-fluorescent oxidation product whose fluorescence intensity can be measured.
To measure ROS production from C. elegans, 5000-7000 L1 worms were exposed to each condition for 2-3 days as indicated and then washed four times in 1 ml of the reaction buffer supplied with the kit. Volumes were adjusted to 700-1200 nematodes/50 μl and 50 μl was pipetted into a 96-well plate. A total of 50 μl of the Amplex Red reaction buffer was then added to the wells, and after 1 hr fluorescence was measured with a fluorescence microplate reader using excitation at 530±12.5 nm and fluorescence detection at 590±17.5 nm. Background fluorescence, determined for a no-H2O2 control reaction, was subtracted from each value. The significance of differences between conditions was determined by an unpaired fest. GraphPadPrism 8.0 was used for these calculations. Three biological replicates were carried out for each condition.

SMILES: O=C(O)CO [GA, glycolic acid]
- Mitochondrial membrane potential (MMP) (C. elegans [1]): prevented this effect
- Growth (C. elegans [2]): able to restore both traits
- GSH/GSSG ratio (C. elegans [3]; H2O2+GA, control 107.5): 77.4
- Total glutathione (C. elegans [3]; H2O2 in the presence of GA (10 mM), 3 days): 91 % of the control
- Oxidized form of glutathione (GSSG) (C. elegans [3]; H2O2 with addition of GA): 140 % of the control
- Total glutathione, effect of GA addition (C. elegans [3]; peroxide-treated ghpr-1 and ghpr-1, gox-1, ldh-1 mutant strains): unaffected
- Increase in GSSG, rescue by GA (C. elegans [3]; peroxide-treated ghpr-1 and triple mutants co-incubated with GA): not rescued
- Accumulation of H2O2 (C. elegans [4]): diminished

From patent US20230414657A1, “Novel compositions for neutralizing toxic effects of hydrogen peroxide in living cells or tissues” (Dzala LLC, priority 2020, published 2023)
